One experiment deals with CCL3/MIP-1α. The experiment can be described thus: CCL3/MIP-1α levels in LC-TC co-culture supernatants, multiplex assay and flow cytometry. The class given is cell-based, human. As to conditions: highest concentration of BAY117082, n=4. A general note: In flow cytometry, cells or beads pass a laser one at a time.
For another experiment, the system named is HIV-1. The note with it: agent added during co-culture; dose-dependent.
The test system of a further experiment is HIV-1 JRCSF. The experiment can be described thus: HIV-1 transfer from monocyte-derived Langerhans cells (MDLC) to CD4+ T-cells, p24 ELISA of co-culture supernatants. The class given is cell-based. The procedure:
Peripheral blood mononuclear cells (PBMCs) from healthy donors were separated from whole blood by a standard Ficoll gradient. CD14+ monocytes and CD4+ TCs were obtained from PBMCs by negative magnetic selection (Stemcell Technologies, Grenoble, France) according to the manufacturer's instructions. MDLC were prepared and maintained as described (Masterson et al., Blood 100:701-703; Geissmann et al., J Exp Med 187:961-966.)
A general note: An ELISA detects its analyte on a solid surface through an enzyme-linked reagent.

The values that follow come from patent US20160106813A1 (CENTRE NATIONAL DE LA RECHERCHE SCHIENTIFIQUE (CNRS), priority 2013, published 2016).

Ends that are not written are not given here.

Take `Cc1ccc(S(=O)(=O)/C=C/C#N)cc1` [BAY117082]: the “CGRP-induced CCL3/MIP-1α secretion in presence of inhibitor, mean±s.e.m fold” value in the experiment on CCL3/MIP-1α came out at 1.0±0.1 fold. In the experiment on HIV-1, the “effect on CGRP-mediated HIV-1 transfer inhibition” value is reported as “abrogated”.

Consider “Ala-Cys-Asn-Thr-Ala-Thr-Cys-Val-Thr-His-Arg-Leu-Ala-Gly-Leu-Leu-Ser-Arg-Ser-Gly-Gly-Met-Val-Lys-Ser-Asn-Phe-Val-Pro-Thr-Asn-Val-Gly-Ser-Lys-Ala-Phe-NH2 (ACNTATCVTHRLAGLLSRSGGMVKSNFVPTNVGSKAF-NH2; ends and bridges not checked) [beta CGRP]”, for which the “HIV-1 transfer from Langerhans cells to TCs (in words)” value in the experiment with HIV-1 JRCSF (MDLCs pretreated with the peptide, pulsed with HIV-1 JRCSF (R5), co-cultured a week with CD4+ TCs) was “inhibit HIV-1 transfer”.

In the case of “CGRP8-37: truncated CGRP receptor antagonist (VTHRLAGLLSRSGGVVKNNFVPTNVGSKAF; ends and bridges not checked; UniProt P06881 90-119, looked up, fragment)”, the “effect on the inhibitory effect of CGRP on HIV-1 transfer” value with HIV-1 JRCSF (1000 nM CGRP8-37 added 10 min before CGRP) is on record as “completely abrogated”.
